Assay results published in US20120208776A1 (priority 2002, published 2012).
Where “and” joins values, the source holds several entries; their conditions need not be identical. Equal values may be shown once. Read-outs that look alike come from different tables or passages of the source.

Assays:
MCF7 cells = assay: Cell proliferation, cell count (Coulter Counter); type: cell-based, human; conditions: for IC50: Homo sapiens, MCF7 cells, read-out: IC50
[1] = Lipid analysis of rat liver; type: in vivo, Sprague-Dawley rats; conditions: actein 35.7 mg/kg; 24 hours
Experimental: (§1) Lipid analysis: Hepatic lipids were extracted by homogenization of the liver followed by addition of choloroform:methanol (2:1). After vortex and centrifugation for 10 min, the organic phase was collected and dried under nitrogen. The dried lipids were dissolved in 1% Triton X-100 in water and sonicated. Extracted hepatic lipids and plasma lipids were measured by cholesterol and triglyceride enzymatic assay kits from Infinity (Louisville, Colo.) according to the manufacturer's instruction. Free fatty acids were measured by Enzymatic assay using NEFA C kit from Wako Chemicals (Richmond, Va.). Tissue lipids were normalized by protein concentration.
as §1, with “Hepatic” for “Lipid analysis: Hepatic”, “liver from the 24 h group,” for “liver”, “vortexing” for “vortex”, “Colo.),” for “Colo.)”, “instructions.” for “instruction.”

[2] = Pharmacokinetic analysis of actein in serum and urine (HPLC-MS); type: in vivo; conditions: female, Sprague-Dawley, rat, oral, rats, 35.7 mg/kg
Experimental: In this study two groups of 8 female rats were each treated with: 1) 35.7 mg/kg of actein, and 2) 1/5 this dose, 7.14 mg/kg, by gastric intubation. A control group of 8 female rats was treated by gastric intubation with 1 cc of water. Afresh solution of actein, suspended in water, was prepared just before the treatment.
Blood and urine collection: To determine the serum concentration of actein at different times during 24 hours, blood was sequentially collected from 4 animals of the group treated with 35.7 mg/kg actein at intervals of 0, 5, 15, 30, 60 minutes and 2, 4, 6, 8 and 24 hours after the administration of actein. For the 24 hour period, animals were starved with free access to water. Blood samples (0.5 ml) were collected through contusion of the retrobulbar plexus with a siliconated glass Pasteur pipette after anaesthetization with ethyl ether. Immediately after sacrifice, blood was drawn from the portal vein with a sterile syringe into vials without anticlotting agents. Ten minutes after each sampling (the time necessary for the formation of the clot), blood was centrifuged at 1500 g for 10 minutes, then serum was stored in cryogenic screw cap vials at −70° C. […]
HPLC-MS analysis was performed, in duplicate, by Chromadex to determine the presence and quantity of actein in serum and urine samples from Sprague-Dawley rats treated with 35.7 mg/kg actein. […]

[3] = tested on: rat liver gene expression; assay: AffyLimma microarray analysis of rat liver, actein; type: in vivo, Sprague-Dawley rats; conditions: for number of genes significantly altered (B>0): actein; for Fold-change relative to control, BZRP, Microarray / Fold-change relative to control, CCND1, Microarray / Fold-change relative to control, CYP7A1, Microarray / Fold-change relative to control, HMGCR, Microarray / Fold-change relative to control, HMGCS1, Microarray / Fold-change relative to control, HSD17B7, Microarray / Fold-change relative to control, ID3, Microarray / Fold-change relative to control, NQO1, Microarray / Fold-change relative to control, S100A9, Microarray: rat liver, 35.7 mg/kg
[4] = tested on: HepG2 p53 positive human liver cancer cells; assay: MTT proliferation assay; type: cell-based

CC(=O)O[C@@H]1C[C@@]23C[C@@]24CC[C@H](O[C@@H]2OC[C@@H](O)[C@H](O)[C@H]2O)C(C)(C)[C@@H]4CC[C@H]3[C@]2(C)C[C@@H]3O[C@]4(C[C@@H](C)[C@@H]3[C@@]12C)O[C@H](O)[C@@]1(C)O[C@@H]41 [actein]
IC50 (MCF7 cells; 96 h): 14 µg/mL
IC50 (MCF7 cells; 96 h, value in parentheses): 21 µM
cells alive (MCF7 cells; MCF7, 20 μg/ml, 96 h): 38.0%±3.0
potency relative to 23-epi-26-deoxyactein or cimifugoside (MCF7 cells; MCF7 growth inhibition): approximately 1.5 fold
potency relative to cimiracemoside A (MCF7 cells; MCF7 growth inhibition): approximately 3 times
cholesterol level in liver vs controls [1]: 0.6 fold
free fatty acid level in liver vs controls [1]: 0.6 fold
triglyceride content of liver vs controls [1]: no change
concentration at 24 h ([2]; serum, 24 hours, read-out: level of actein in serum): 102 ng/mL
concentration at 24 h ([2]; urine, 24 h, read-out: level of actein in urine): 777 ng/mL
number of genes significantly altered (B>0) ([3]; 6 hours): 0
number of genes significantly altered (B>0) ([3]; 24 hours): 109
Fold-change relative to control, BZRP, Microarray ([3]; 6 h): −0.12
Fold-change relative to control, CCND1, Microarray ([3]; 6 h): 0.57
Fold-change relative to control, CYP7A1, Microarray ([3]; 6 h): 0.045
Fold-change relative to control, HMGCR, Microarray ([3]; 6 h): −0.61
Fold-change relative to control, HMGCS1, Microarray ([3]; 6 h): −0.66
Fold-change relative to control, HSD17B7, Microarray ([3]; 6 h): −0.99
Fold-change relative to control, ID3, Microarray ([3]; 6 h): 0.19
Fold-change relative to control, NQO1, Microarray ([3]; 6 h): −0.64
Fold-change relative to control, S100A9, Microarray ([3]; 6 h): −0.64
Fold-change relative to control, BZRP, Microarray ([3]; 24 h): 1.51
Fold-change relative to control, CCND1, Microarray ([3]; 24 h): −2.30
Fold-change relative to control, CYP7A1, Microarray ([3]; 24 h): 2.04
Fold-change relative to control, HMGCR, Microarray ([3]; 24 h): 1.12
Fold-change relative to control, HMGCS1, Microarray ([3]; 24 h): 1.11
Fold-change relative to control, HSD17B7, Microarray ([3]; 24 h): 2.11
Fold-change relative to control, ID3, Microarray ([3]; 24 h): −0.58
Fold-change relative to control, NQO1, Microarray ([3]; 24 h): 1.45
Fold-change relative to control, S100A9, Microarray ([3]; 24 h): 3.01
IC50 [4]: 27 µg/mL and 40 µM
